These results are taken from patent US6335339B1, “Triazine antiviral compounds” (Scriptgen Pharmaceuticals, Inc., priority 1998, dated 2002).

In one series the test system is 2.2.15 cells. The experiment in a line: neutral red dye uptake cytotoxicity. Format: cell-based. Conditions: 9 days treatment, read-out: 50% Cell Death CC50. As for the experimental part: Further, the antiviral effect of any compound must be measured against its toxicity. Cytotoxicity is measured by the neutral red uptake method using the same cells used for antiviral activity.
2b. Compounds were prepared for toxicity treatment as follows: For each compound, a total of 4 concentrations were examined. This required 9 sets of 4 sterile, 1.1 ml minitubes (36 tubes per compound). Into the first tube of each set, sufficient compound was aliquoted to make up 465 μl of the highest test concentration. The other tubes were left empty. The tubes were covered with the rack lids, and stored at −20° C. or at an appropriate temperature. Tubes for the last day of treatment for toxicity testing contain the same amount of compound as used the previous days (not 3xas for the antiviral assays).
3b. The cytotoxicity of test compounds was analyzed in a 3.3-fold dilution series as follows. […] (155 μl×3) of RP2 were added to the first tube (containing the aliquot of compound) and 310 μL (155 μl×2) RP2 to each of the 3 remaining tubes. 150 μl of test compound-containing medium were serially transferred from the first tube to the other 3 tubes.
5. A single plate was used for the toxicity treatments for each test compound (up to 7 compounds per plates since the top row were reserved for untreated cells on every toxicity plate). To initiate the treatments, the culture medium was removed, and 100 μl of each dilution of every compound were added to each of 3 wells using a configuration similar to that shown above for the antiviral treatments. The untreated cells received 100 μl RP2 per well. Treatment was repeated daily for 9 days.
The antiviral effect of any compound was evaluated relative to its toxicity. Cells were seeded and treated following the guidelines above, after which a neutral red dye uptake assay was performed to assess toxicity as described below. Other assays of cytotoxicity (e.g., MTT) can be substituted for the procedure described below. Note that this procedure assesses toxicity under culture and treatment conditions which are identical to those used for the antiviral analyses, thereby permitting a determination as to whether the reduction in virus production due to a specific antiviral effect or due to a cytotoxic effect on the host cell. Since the cultures, by necessity, are at confluence, the cytotoxic effects of the test compounds will probably be reduced relative to the cytotoxic effects that would be expected for actively dividing cells.
1. Cultures were treated with test compounds on the designated toxicity plates as described above.
2. The culture medium was carefully removed 24 hours following the 9th day of treatment. The monolayer was fully removed in the top left three wells (row A, col. 1-3). These wells were used as “blanks” for the plate reader.
3. 100 μl DPBS (containing 0.01% neutral red dye) were added to each well, including the empty wells, and Incubated in the tissue culture incubator for 30 minutes.
4. The dye was removed carefully and gently, using a multichannel pipetman since the monolayers can become fragile after incubation with neutral red dye. 200 μl DPBS were added to all the wells taking care not to displace the monolayers. The DPBS was removed and 100 μl 50% EtOH/1% glacial acetic acid (in H2O) were added to each well. The plates were mixed for 15 minutes on an orbital platform shaker (120-150 RPM) to allow for full extraction of the dye from the cells.
5. Optical absorbance at 510 nm was read in an ELISA type plate reader, using the 3 empty wells to set the background. An average absorbance value was calculated for the 9 untreated cultures on a plate, and the absorbance of dye for the treated cultures on the same plate was expressed as a percentage of that value. This procedure was repeated for each individual plate. […]

The next series concerns HBV. Briefly: antiviral assay in 2.2.15 cells producing HBV (virion DNA dot blot). Format: cell-based, Hepatitis B virus. From the text: Several cell lines and cell culture assays have been developed to identify potential therapeutics effective against chronic HBV infection. One of these cell lines, 2.2.15, has been used in a standardized assay that has repeatedly proven to be an accurate model of chronic cellular HBV replication and a predictive model of antiviral response for chronic hepadnaviral infection in vivo. 2.2.15 cells contain copies of the complete HBV genome integrated into the cell's genome, and 2.2.15 cells are not susceptible to infection by HBV. (Sells, M. A. et al., J. Virol. 62 (8): 2836-2844 (1988)). These cells express HBV genes producing complete HBV particles capable of infecting chimpanzees (Acs, G. et al., Proc. Natl. Acad. Sci. USA 84 (13): 4641-4644 (1987)). Briefly, 2.2.15 cells are cultured and pretreated with a test compound for about 9 days, at which point the media are harvested and subjected to dot-blot hybridization to detect HBV virion DNA.
The antiviral activity of the compounds of the present invention is measured by the methods described in Korba and Gering, Antiviral Res. 19: 55-70 (1992).
This assay format is well suited to the screening of test compounds for potential antiviral activity. The assay provides a threshold assessment of antiviral activity by measuring (i) the levels of HBV virion release from the cells and (ii) cytotoxicity. Two rows of cells were used for each compound, and 4 rows for the assay controls (two for untreated, and two for positive antiviral control, e.g., 3TC). After incubating in the presence of test compound for 9 days, the media were harvested, transferred to 96-well U-bottom plates, and centrifuged. The supernatants were transferred to tubes for dot blot hybridization analysis of HBV virion DNA. The medium was aspirated off of the toxicity plates and discarded. Toxicity plates were then incubated with neutral red dye (MTT can also be used if preferred), washed with DPBS, developed with an acetic acid-ethanol solution, and assayed in a plate reader.
1. 2.2.15 cells were seeded into 96-well, flat bottom tissue culture plates as described above. Duplicate plates were used for the antiviral treatments for each test compound (up to 8 compounds per pair of plates); after three to four days, cells were confluent and medium was yellow in color; the medium was removed and replaced with 100 μl RP2 24 hours before the beginning of drug treatment.
i) For each compound, a total of 4 concentrations were examined; this required 9 sets of 4 sterile, 1.1 ml minitubes (36 tubes per compound). Into the first tube of each set, sufficient compound was aliquoted to make up 700 μl (for 10-fold dilution series) or 980 μl (for 3.3-fold dilution series) of the highest test concentration; the other tubes were left empty.
i) For a 10-fold dilution series: to the first (compound containing) tube was added 700 μl (175 μl×4). 630 μl (210 μl×3) RP2 culture medium was added to the remaining 3 tubes. The first tube was mixed by pipeting up and down with a pipetman (a multichannel pipetman permits the simultaneous processing of multiple compounds). 70 μl of test compound-containing medium were serially transferred from the first tube to the other 3 tubes, taking care to thoroughly mix each tube before transferring medium;
b) 100 μl of each dilution of every compound was added to each of 6 wells (3 wells per plate) using the configuration listed below as an example. The lowest concentration was added first, and the same tips were used to add the higher concentrations. The untreated cells received 100 μl RP2 per well (untreated cells have to be carried on only one pair of the antiviral assay plates).
c) Treatments were repeated daily for 9 days. For the last day of treatment, and additional 200 μl RP2 were added to each well of the antiviral assay plates after the wells are treated with the test compounds (a total of 300 μl medium per well).
6. […]

Where [1] appears, read: extra-cellular virus reduced by 50%, 2.2.15 cells, 9 days treatment, read-out: Antiviral EC50.

Where two headings read alike, the source gives them in different places. A value given as a limit tells only on which side of the number the result lay.

For the molecule `CCCCN(CCCC)c1nc(NN=Cc2ccc([N+](=O)[O-])cc2)nc(Nc2ccc([N+](=O)[O-])cc2)n1` [Compound 5], the cytotoxic concentration (CC50) in the series on 2.2.15 cells was 307 µM. Also, the EC90 in the series on HBV (drug alone, Example 3, read-out: 90% viral reduction (EC90)) amounted to 1.3 µM. Further, in the series on HBV (setting [1]), the EC50 was determined as 0.411 µM.
For `Cc1[nH]c2ccccc2c1C=NNc1nc(Nc2ccccc2)nc(Nc2ccc([N+](=O)[O-])cc2)n1` [Compound 6], in the series on 2.2.15 cells, the CC50 is 29 µM. Also, the EC50 with HBV (setting [1]) stood at 0.3 µM.
For `Cc1ccc(Nc2nc(NN=Cc3ccccc3)nc(Nc3ccccc3)n2)c(C)c1` [Compound 7] the same measures were 29 µM and 33 µM.
As for `CCCCN(CCCC)c1nc(N/N=C/c2cc(I)cc(I)c2O)nc(Nc2ccc([N+](=O)[O-])cc2)n1` [Compound 8], in the series on 2.2.15 cells, the CC50 was 196 µM. Further, the EC50 in the series on HBV (setting [1]) is above 100 µM.
For `Cc1ccc(Nc2nc(NN=Cc3ccc(O)cc3O)nc(Nc3ccc([N+](=O)[O-])cc3)n2)cc1C` [Compound 9], in that order: 175 µM and 0.474 µM.
For `Cc1ccccc1Nc1nc(NN=Cc2ccc(I)cc2)nc(Nc2ccc([N+](=O)[O-])cc2)n1` [Compound 10], in that order: above 300 µM and above 100 µM.
For `CCCCN(CCCC)c1nc(NN=Cc2ccc3c(c2)OCO3)nc(Nc2ccc([N+](=O)[O-])cc2)n1` [Compound 11] the same measures were 27 µM and 3.9 µM.
As for `Cc1ccc(Nc2nc(NN=Cc3ccccc3O)nc(Nc3ccc([N+](=O)[O-])cc3)n2)cc1C` [Compound 12], the CC50 in the series with 2.2.15 cells amounted to 77 µM. Besides, the EC50 in the series with HBV (setting [1]) was 0.759 µM.
As to `CCN(CC)c1nc(NN=Cc2ccc([N+](=O)[O-])cc2)nc(Nc2ccccc2)n1` [Compound 13], in the series on 2.2.15 cells, the cytotoxic concentration (CC50) was above 300 µM. Moreover, the EC50 with HBV (setting [1]) is 8.4 µM.
For `COc1c(Br)cc(Br)cc1C=NNc1nc(Nc2ccccc2)nc(N2CCCCC2)n1` [Compound 14], in the series on 2.2.15 cells, the CC50 is above 100 µM. For the same molecule, in the series with HBV (setting [1]), the EC50 was above 100 µM.
For `Cc1ccc(C=NNc2nc(Nc3ccc([N+](=O)[O-])cc3)nc(Nc3ccccc3C)n2)cc1` [Compound 15], the CC50 in the series with 2.2.15 cells was 0.6 µM. In addition, the EC50 with HBV (setting [1]) was determined as 0.5 µM.
For `CCCCN(CCCC)c1nc(NN=Cc2ccc(Cl)cc2)nc(Nc2ccc([N+](=O)[O-])cc2)n1` [Compound 16], in that order: 304 µM and 15 µM.
On to `CC(C=NNc1nc(Nc2ccc([N+](=O)[O-])cc2)nc(Nc2ccc(C)c(C)c2)n1)=Cc1ccccc1` [Compound 19], for which the CC50 in the series with 2.2.15 cells was above 300 µM. Also, in the series on HBV (setting [1]), the EC50 was above 100 µM.
Regarding `COc1ccc(Nc2nc(NN=Cc3ccc(OC)cc3OC)nc(Nc3ccccc3)n2)cc1` [Compound 20], the CC50 in the series with 2.2.15 cells was 7.1 µM. Moreover, the EC50 in the series on HBV (setting [1]) was determined as 4.1 µM.
For `FC(F)(F)c1cccc(Nc2nc(Nc3ccccc3)nc(N3CCOCC3)n2)c1` [Compound 21] the same measures were 5.6 µM and 5.6 µM.
Turning to `COc1ccc(Nc2nc(NN=Cc3ccc(Cl)cc3)nc(Nc3ccccc3)n2)cc1` [Compound 22], the CC50 in the series on 2.2.15 cells was 47 µM. In addition, in the series on HBV (setting [1]), the EC50 is above 100 µM.
In the case of `CCCCN(CCCC)c1nc(NN=Cc2ccc(OCC)c(O)c2)nc(Nc2ccc([N+](=O)[O-])cc2)n1` [Compound 23], in the series with 2.2.15 cells, the CC50 was 145 µM. Further, the half-maximal effective concentration (EC50) in the series on HBV (setting [1]) came out at 40 µM.
In the case of `O=[N+]([O-])c1ccc(Nc2nc(NCc3ccccc3)nc(NN=Cc3ccccc3)n2)cc1` [Compound 24], in the series with 2.2.15 cells, the CC50 came to 75 µM. For the same molecule, the EC50 in the series on HBV (setting [1]) worked out at 18 µM.
For `Cc1ccc(Nc2nc(NN=Cc3ccccc3)nc(Nc3ccccc3)n2)cc1` [Compound 25], the CC50 in the series with 2.2.15 cells came to 105 µM. Also, in the series on HBV (setting [1]), the half-maximal effective concentration (EC50) amounted to 1 µM.
Take `CCN(CC)CCNc1ccc2c3c(cccc13)C(=O)N(Nc1nc(NCc3ccccc3)nc(N(CC)CC)n1)C2=O` [Compound 27]: the CC50 in the series with 2.2.15 cells was above 300 µM. Further, in the series on HBV (setting [1]), the EC50 is above 100 µM.
Turning to `COc1ccc(Br)cc1/C=N/Nc1nc(Nc2cccc([N+](=O)[O-])c2)nc(N2CCOCC2)n1` [Compound 28], in the series with 2.2.15 cells, the CC50 worked out at 33 µM. For the same molecule, in the series on HBV (setting [1]), the EC50 was above 100 µM.
For `Cc1ccccc1Nc1nc(NN=Cc2ccc3c(c2)OCO3)nc(Nc2ccc([N+](=O)[O-])cc2)n1` [Compound 29] the same measures were 15 µM and 1.1 µM.
For `Cc1ccc(Nc2nc(NN=Cc3cccc(I)c3)nc(Nc3ccccc3)n2)cc1` [Compound 30] the same measures were 230 µM and 54 µM.
In the case of `Oc1ccc(I)cc1C=NNc1nc(NCc2ccccc2)nc(Nc2ccccc2)n1` [Compound 33], the CC50 in the series with 2.2.15 cells was found to be 50 µM. Also, the EC50 in the series on HBV (setting [1]) was above 100 µM.
With `Oc1c(Br)cc(Cl)cc1/C=N/Nc1nc(Nc2cccc(C(F)(F)F)c2)nc(N2CCOCC2)n1` [Compound 34], in the series on 2.2.15 cells, the CC50 is 41 µM. Moreover, in the series with HBV (setting [1]), the EC50 was 66 µM.
For `CCCCN(CCCC)c1nc(NN=Cc2cccc(Cl)c2)nc(Nc2ccc([N+](=O)[O-])cc2)n1` [Compound 35] the same measures were 3.9 µM and 2.3 µM.
For `Cc1ccc(Nc2nc(NN=Cc3ccc(I)cc3)nc(Nc3ccccc3)n2)c(C)c1` [Compound 113] the same measures were above 300 µM and above 100 µM.
Turning to `CCN(CC)c1nc(NCc2ccccc2)nc(N/N=C/c2ccccc2O)n1` [Compound 155, 2-hydroxybenzaldehyde N-[4-(benzylamino)-6-(diethylamino)-1,3,5-triazin-2-yl]hydrazone], the EC50 in the series on HBV (Hepatitis B virus, 216 h, read-out: Antiviral EC50 (μM)) was determined as 0.063 µM; in the series on HBV (Hepatitis B virus, 216 h, extra-cellular virus reduced by 50%, 2.2.15 cells, 9 days treatment, read-out: Antiviral EC50), 0.001 µM.
